Source: patent US7862995B2, “Methods and materials for predicting responsiveness to treatment with dual tyrosine kinase inhibitor” (Targeted Molecular Diagnostics, priority 2004, dated 2011)
“Also recorded” adds a separate entry of the source.

Columns and labels:
ER in MCF-7(HER2) cells = assay: ER localization by immunofluorescence in MCF-7(HER2) cells; format: cell-based; details: 1 mM GW2974 for 4 days
Description: Nuclei are stained with DAPI and ER is detected by an immunofluorescent antibody

[1] = test system: ER (and PR) expression in breast cancer cells; assay: ER (and PR) expression in breast cancer cells; format: cell-based
[2] = test system: pAkt, pErk1 and pErk2 in MCF-7+HER2 cells; assay: Western blot of MCF-7+HER2 cells for pErk1/Erk2/pAkt; format: cell-based
[3] = test system: AU-565 breast cancer cells; assay: Viability of AU-565 and Bcl-2-transfected AU-565 cells after GW2974 treatment; format: cell-based
Description: Au-565 breast cancer cells were obtained from the American Tissue Culture Collection, (deposit # CRL-2351) (Manassas, Va.) and were transfected with a Bcl-2 cDNA to express high levels of Bcl-2. Methods of transfecting cells are well known in the art and any known methods may be used in this example. Transfected Au-565 cells were then exposed to GW2974 (Sigma-Aldrich, St. Louis, Mo.), a dual EGFR/HER2 tyrosine kinase inhibitor.

BT474 breast tumor cells = assay: Cell death in estrogen-stimulated BT474 cells, methylene blue staining; format: cell-based, human; details: 1 μM estrogen 24 hr, 5 μM GW2974 90 min, 10 μM tamoxifen 72 hr
Procedure: Exponentially growing BT474 cells were treated with 1 μM estrogen for 24 hr. After 24 hr the cells were either untreated or treated with 5 μM small molecule dual inhibitor of EGFR/erbB2 (Sigma, GW2974) for 90 min. After 90 min, the cells were either untreated or treated with 10 μM tamoxifen for 72 hr. Cells were then washed with 1×PBS, stained with methylene blue (1% methylene blue in 50% methanol), rinsed with water, and dried overnight.

[4] = test system: breast, gastric, and head/neck carcinoma cell lines compared to normal human foreskin fibroblasts (HFF); details: cited from earlier work
[5] = test system: invasive breast carcinoma; assay: TUNEL staining of PCD in patient tumor samples; format: in vivo, human
Procedure: All TUNEL solutions and staining reagents used in the present invention were purchased from Roche. Paraffin-embedded tissue clinical samples were dewaxed and rehydrated by heating at 60° C. followed by washing in xylene and rehydration through a graded series of washes with ethanol and double distilled water. Samples were incubated for 15-30 min at 21-37° C. with Proteinase K. Slides were rinsed twice with PBS. The area around the sample was dried and 50 μl of TUNEL reaction mixture was added to each slide. A coverslip was added to each slide and incubated for 60 min at 37° C. in a humidified chamber in the dark. The slides were rinsed three times with PBS. The TUNEL signal was converted by first drying the area around the sample and then adding 50 μl of Converter-POD reagent. The slides were incubated in a humidified chamber for 30 min at 37° C. and then rinsed three times in PBS. 100 μl of DAB Substrate was added to each slide and incubated for 10 min at 15-25° C. The slides were then rinsed three times with PBS. Slides were mounted under glass coverslips and TUNEL staining was analyzed under a light microscope.

[6] = Clinical response of a subject treated with a small molecule dual inhibitor of EGFR/erbB2; format: in vivo, human; details: one subject
[7] = test system: forkhead transcription factor 3 (FOXO3A) in AU-565 breast cancer cells; assay: FOXO3A staining of AU-565 breast cancer cells; format: cell-based
FOXO3 = assay: ELISA gel for FOXO3; details: following treatment
[8] = test system: ER in breast cancer tissues; assay: IHC of ER in breast cancer tissues after treatment; format: in vivo

Compound: CN(C)c1cc2c(Nc3ccc4c(cnn4Cc4ccccc4)c3)ncnc2cn1 [GW2974]
- ER localization (ER in MCF-7(HER2) cells): accumulation of the ER in the cellular nucleus
- ER (and PR) expression [1]: upregulates ER (and PR) expression
- effectiveness in cells pre-treated with estrogen ([2]; MCF-7+HER2 cells pre-treated with estrogen, then GW2974): not effective
- pAkt expression ([2]; MCF-7+HER2 cells treated with GW2974): not expressed; also recorded: greatly reduced
- expression of pErk1 and pErk2 ([2]; MCF-7+HER2 cells treated with GW2974, relative to baseline control (actin)): decreased
- viable cells ([3]; AU-565/Bcl-2 cells (overexpressing Bcl-2) treated by GW2974): approximately 50%
- viable cells ([3]; AU-565 cells treated by GW2974): ~20%
- higher rate of cell survival in cells with high Bcl-2 expression ([3]; following treatment with GW2974): approximately 30%
- cell death (BT474 breast tumor cells): increases cell death in the presence of tamoxifen
- selectivity in inhibiting cell growth [4]: greater than 75 fold

Compound: CS(=O)(=O)CCNCc1ccc(-c2ccc3ncnc(Nc4ccc(OCc5cccc(F)c5)c(Cl)c4)c3c2)o1 [lapatinib]
- response of TUNEL-positive patient to treatment ([5]; patient with invasive breast carcinoma (IBC) positive for TUNEL staining): responded well
- levels of PCD by TUNEL staining ([5]; patient with invasive breast carcinoma, 21 days after treatment): significantly increased levels of PCD
- clinical response [6]: complete response
- duration of response / disease free state ([6]; following treatment): at least 20 months
- FOXO3A expression [7]: upregulated; also recorded: upregulates FOXO3A
- FOXO3 expression (FOXO3): upregulation of FOXO3
- ER localization [8]: change in ER localization
